Results taken from PubChem BioAssay AID1205 (EPA DSSTox, 2008).
Activity calls are given as the source filed them.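 Rule for the calls: active = tumour findings in long-term animal cancer tests in more than one sex, species or organ; inactive = no tumour finding and more than one negative test.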

experiment: DSSTox (CPDBAS) Carcinogenic Potency Database Summary MultiCellCall Results; conditions: animal carcinogenicity bioassays, multi-cell call summary
Method in brief: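 ActivityScore sums 50 for multispecies, 30 for multisex and 20 for multisite positivity. Based on the most positive experiment per sex-species across standardised chronic rodent and other animal cancer tests.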

SMILES | outcome
O=C1C2CC=CCC2C(=O)N1SC(Cl)(Cl)Cl (centres undefined) | active; multisite active; multisex active; multispecies active
F | inactive; multisex inactive; multispecies inactive
CC1(C)S[C@@H]2[C@H](NC(=O)[C@H](N)c3ccccc3)C(=O)N2[C@H]1C(=O)O | inactive; multisex inactive; multispecies inactive
c1ccc2ccccc2c1 | active; multisite active; multisex active; multispecies active
COc1cccc2c1cc([N+](=O)[O-])c1c(C(=O)O)cc3c(c12)OCO3 | active; multisex active
CCOC(=O)[C@H](CCc1ccccc1)N[C@@H](C)C(=O)N1Cc2ccccc2C[C@H]1C(=O)O | inactive; multisex inactive; multispecies inactive
Cc1cc(O)cc(C)c1N(C)C | inactive; multisex inactive
C[C@]12CCC(=O)C=C1CC[C@@H]1[C@@H]2[C@@H](O)C[C@@]2(C)[C@H]1CC[C@]2(O)C(=O)CO | inactive; multisex inactive
CCCCCl | inactive; multisex inactive; multispecies inactive
CC1CCC(C(C)C)C(O)C1 (centres undefined) | inactive; multisex inactive; multispecies inactive
COc1ccc(C(Cl)=C(c2ccc(OC)cc2)c2ccc(OC)cc2)cc1 | inactive; multisex inactive
CNNC | active; multisite active; multisex active; multispecies active
Nc1cc(S(=O)(=O)O)cc2cc(S(=O)(=O)O)c(N=Nc3ccc(-c4ccc(N=Nc5c(S(=O)(=O)O)cc6cc(S(=O)(=O)O)cc(N)c6c5O)cc4)cc3)c(O)c12 | active; multisex active
N[C@@H](Cc1ccc(N(CCCl)CCCl)cc1)C(=O)O | active; multisite active; multisex active; multispecies active
Nc1nc(N)c2nc(-c3ccccc3)c(N)nc2n1 | active; multisex active
N[C@@H](CCC(=O)NNc1ccc(CO)cc1)C(=O)O | inactive; multisex inactive
BrC(Br)Br | active; multisex active
COc1cccc2c1C(=O)c1c(O)c3c(c(O)c1C2=O)C[C@@](O)(C(=O)CO)C[C@@H]3O[C@H]1C[C@H](N)[C@H](O)[C@H](C)O1 | inactive; multispecies inactive
N#Cc1c(Cl)c(Cl)c(Cl)c(C#N)c1Cl | active; multisex active
O=C1C=CC(=O)C=C1 | active; multisex active
CC(I)C1OCC(CO)O1 (centres undefined) | active; multisite active; multisex active; multispecies active
CC(C)(Oc1ccc(C2CCCc3ccccc32)cc1)C(=O)O (centres undefined) | active; multisite active; multisex active
C=CC(=C)C | active; multisite active; multisex active; multispecies active

SMILES | outcome
OC[C@H]1O[C@@](CO)(O[C@H]2O[C@H](CO)[C@@H](O)[C@H](O)[C@H]2O)[C@@H](O)[C@@H]1O | inactive; multisex inactive
CC(N)Cc1ccccc1 (centres undefined) | inactive; multisex inactive; multispecies inactive
CCOC(=O)N(CC)N=O | active; multisite active
CC(C)(C)c1cc(CO)cc(C(C)(C)C)c1O | inactive; multisex inactive
C[C@]12C=CC(=O)C=C1CC[C@@H]1[C@@H]2C(=O)C[C@@]2(C)[C@H]1CC[C@]2(O)C(=O)CO | inactive; multisex inactive
Cc1ccc(OP(=O)(Oc2ccc(C)cc2)Oc2ccc(C)cc2)cc1 | inactive; multisex inactive; multispecies inactive
C=CC | inactive; multisex inactive; multispecies inactive
CNCCC(Oc1ccc(C(F)(F)F)cc1)c1ccccc1 (centres undefined) | inactive; multisex inactive; multispecies inactive
CC(Cl)(Cl)Cl | inactive; multisex inactive; multispecies inactive
Cc1cc(Cl)ccc1N | active; multisex active
Nc1ccc(N=Nc2ccc(-c3ccc(N=Nc4c(S(=O)(=O)O)cc5cc(S(=O)(=O)O)c(N=Nc6ccccc6)c(O)c5c4N)cc3)cc2)c(N)c1 | active; multisite active; multisex active; multispecies active
O.O=S(=O)([O-])[O-].[Mn+2] | inactive; multisex inactive; multispecies inactive
COC(=O)C(c1ccccc1)C1CCCCN1N=O (centres undefined) | inactive; multisex inactive
c1ccc2occc2c1 | active; multisite active; multisex active; multispecies active
S=C([S-])NCCNC(=S)[S-].[Zn+2] | inactive; multisex inactive; multispecies inactive
CCCCCc1cc(O)c2c(c1)OC(C)(C)[C@@H]1CCC(C)=C[C@@H]21 | inactive; multisex inactive; multispecies inactive
C/C=C/C=C/C(=O)O | inactive; multisex inactive; multispecies inactive
COc1cc(-c2ccc(N=Nc3c(S(=O)(=O)O)cc4cc(S(=O)(=O)O)cc(N)c4c3O)c(OC)c2)ccc1N=Nc1c(S(=O)(=O)O)cc2cc(S(=O)(=O)O)cc(N)c2c1O | active; multisite active; multisex active
Cc1ccc2c(c1)C(N1CCN(C)CC1)=Nc1ccccc1S2 | inactive; multisex inactive
CC(C)CCCCCCOC(=O)c1ccccc1C(=O)OCCCCCCC(C)C | active; multisite active; multisex active; multispecies active
CCN(Cc1cccc(S(=O)(=O)O)c1)c1ccc(C(=C2C=CC(=[N+](CC)Cc3cccc(S(=O)(=O)O)c3)C=C2)c2ccc(O)cc2S(=O)(=O)[O-])cc1 | inactive; multisex inactive; multispecies inactive
CS(=O)(=O)c1ccc([C@@H](O)[C@@H](CO)NC(=O)C(Cl)Cl)cc1 | inactive; multisex inactive
C=CC(=O)NCO | active; multisite active; multisex active

SMILES | outcome
CNC(=O)Oc1cc(C)c(N(C)C)c(C)c1 | inactive; multisex inactive; multispecies inactive
O=[N+]([O-])c1ccc(-c2cscn2)o1 | active; multisite active
CC(C)(Oc1ccc(C2CC2(Cl)Cl)cc1)C(=O)O (centres undefined) | active; multisite active; multisex active; multispecies active
Cc1cc(C(C)(C)C)c(O)c(C(C)(C)C)c1 | active; multisite active
Cc1cc(OC(=O)N(C)C)n(C(C)C)n1 | inactive; multisex inactive
CC(=O)C(N=Nc1ccc(Cl)cc1Cl)C(=O)Nc1ccc(-c2ccc(NC(=O)C(N=Nc3ccc(Cl)cc3Cl)C(C)=O)c(C)c2)cc1C (centres undefined) | inactive; multispecies inactive
CC(=O)OC[C@]12C[C@H](OC(=O)CC(C)C)C(C)=C[C@H]1O[C@@H]1[C@H](O)[C@@H](OC(C)=O)[C@@]2(C)C12CO2 (some centres undefined) | active; multisite active
C=C1C[C@@]23CC[C@H]4[C@@](C)(CCC[C@@]4(C)C(=O)O[C@@H]4O[C@H](CO)[C@@H](O)[C@H](O)[C@H]4O)[C@@H]2CC[C@]1(O[C@@H]1O[C@H](CO)[C@@H](O)[C@H](O)[C@H]1O[C@@H]1O[C@H](CO)[C@@H](O)[C@H](O)[C@H]1O)C3 | inactive; multisex inactive
NC(=O)N(CC(=O)O)N=O | active; multisite active; multisex active
CCOC(=O)C(C)(C)Oc1ccc(Cl)cc1 | active; multisite active
Brc1cc(Br)c2cccnc2c1 | inactive; multisex inactive
CCCC/C=N/N(C)C=O | active; multisite active; multisex active
CCC[CH2][Sn]([CH2]CCC)([O]C(C)=O)[O]C(C)=O | inactive; multisex inactive; multispecies inactive
Cc1cc2c(nc1N)[nH]c1ccccc12 | active; multisite active; multisex active; multispecies active
O=NN1CCCC1c1cccnc1 (centres undefined) | active; multisite active; multisex active; multispecies active
O=C(O)c1ccccc1-c1c2cc(I)c(=O)c(I)c-2oc2c(I)c(O)c(I)cc12 | inactive; multisex inactive; multispecies inactive
CCCCN(N=O)C(N)=O | active; multisite active; multisex active
CCCNC(=O)NS(=O)(=O)c1ccc(Cl)cc1 | inactive; multisex inactive; multispecies inactive
CC[C@H](C)C(=O)O[C@H]1C[C@@H](C)C=C2C=C[C@H](C)[C@H](CC[C@@H]3C[C@@H](O)CC(=O)O3)[C@H]21 | active; multisite active; multisex active
Nc1cc([N+](=O)[O-])ccc1C(=O)O | inactive; multisex inactive; multispecies inactive
CN(C)CNc1nnc(/C=C/c2ccc([N+](=O)[O-])o2)o1 | active; multisite active
O=NN1CCCCCCCCCCCC1 | active; multisex active
NC(=O)NC1NC(=O)NC1=O (centres undefined) | inactive; multisex inactive

SMILES | outcome
O=C(O)c1[nH]n(-c2ccc(S(=O)(=O)O)cc2)c(=O)c1N=Nc1ccc(S(=O)(=O)O)cc1 | inactive; multisex inactive; multispecies inactive
CC(O)CN(CC(O)CO)N=O (centres undefined) | active; multisite active; multispecies active
CC(CCl)OC(C)CCl (centres undefined) | active; multisite active; multisex active
C=CCOC(=O)CC(C)C | active; multisex active; multispecies active
O=NN1CCOCC1 | active; multisite active; multisex active; multispecies active
CNC(=O)CSP(=S)(OC)OC | inactive; multisex inactive; multispecies inactive
C=CC(=O)O | inactive; multisex inactive
O=[N+]([O-])c1ccc2c(c1)Cc1ccccc1-2 | active; multisite active
CN(C)C(=O)NC1CC2CC1C1CCCC21 (centres undefined) | inactive; multisex inactive
ClCC(Br)CBr (centres undefined) | active; multisite active; multisex active; multispecies active
CN1C(=O)C[C@@H](C(=O)N[C@@H](Cc2cnc[nH]2)C(=O)N2CCC[C@H]2C(N)=O)NC1=O | inactive; multisex inactive; multispecies inactive
C=CCCl | inactive; multisex inactive
CC(C)(c1ccc(O)cc1)c1ccc(O)cc1 | inactive; multisex inactive; multispecies inactive
O=Cc1ccco1 | active; multisex active; multispecies active
CCc1cccc2c3c([nH]c12)C(CC)(CC(=O)O)OCC3 (centres undefined) | inactive; multisex inactive; multispecies inactive
ClCC(Cl)Cl | active; multisite active; multisex active
CC(C)(C)c1cc(C(C)(C)C)c(O)c(C(C)(C)C)c1 | inactive; multisex inactive
CCCCC(CC)COC(=O)CCCCC(=O)OCC(CC)CCCC (centres undefined) | active; multisex active
COC(=O)C1=CCCN(C)C1 | active; multisite active; multisex active
O=P(=O)O | inactive; multisex inactive
